The results in this text go back to ChEMBL document CHEMBL3351759, “Synthesis and antitumor activity of novel 3-oxo-23-hydroxybetulinic acid derivatives” (Eur J Med Chem, 2014).

Holding throughout (assay type): functional, cell-based
Assay [1] is described as follows: Antiproliferative activity against human HL60 cells after 72 hrs MTT assay. The note with it: HL-60, 72 h. For orientation: Tetrazolium dyes change colour on reduction, which living cells bring about.
The nature of assay [2]: Antiproliferative activity against human Bel7402 cells after 72 hrs MTT assay. The note with it: Bel-7402, 72 h.
Assay [3] can be described thus: Antiproliferative activity against human SF763 cells after 72 hrs MTT assay. As to conditions: SF763, 72 h.
Another assay concerns HeLa. As to the kind of experiment: Antiproliferative activity against human HeLa cells after 72 hrs MTT assay.
The subject of another assay is B16. The experiment in a line: Antiproliferative activity against mouse B16 cells after 72 hrs MTT assay. As to conditions: B16, 72 h.

Broadly, the IC50 is the point on the concentration scale where inhibition reaches its midpoint. With `C=C(C)[C@@H]1CC[C@]2(C(=O)O)CC[C@]3(C)[C@H](CC[C@@H]4[C@@]5(C)C[C@H](CO)[C@H](O)[C@@](C)(CO)[C@@H]5CC[C@]43C)[C@@H]12`, the IC50 in assay [1] is 69 µM; in assay [2], 59.1 µM; in assay [3], 50.2 µM; in the assay with HeLa, 70.8 µM; in the assay with B16, 47.9 µM.

With `C=C(C)[C@@H]1CC[C@]2(C(=O)O)CC[C@]3(C)[C@H](CC[C@@H]4[C@@]5(C)C[C@H](COC(C)=O)[C@H](OC(C)=O)[C@@](C)(COC(C)=O)[C@@H]5CC[C@]43C)[C@@H]12`, the 50% inhibitory concentration (IC50) in assay [1] was determined as 59.9 µM; in assay [2] it was 50.2 µM; in assay [3], 46.1 µM; in the assay with HeLa, 61.5 µM; in the assay with B16 it was 39 µM.

On to `C=C(C)[C@@H]1CC[C@]2(C(=O)OCc3ccccc3)CC[C@]3(C)[C@H](CC[C@@H]4[C@@]5(C)C[C@H](CO)[C@H](O)[C@@](C)(CO)[C@@H]5CC[C@]43C)[C@@H]12`, for which the IC50 in assay [1] was determined as 47.9 µM; in assay [2], 41.7 µM; in assay [3] it was 39.1 µM; in the assay with HeLa, 51.4 µM; in the assay on B16, 30.5 µM.

As for `C=C(C)[C@@H]1CC[C@]2(C(=O)O)CC[C@]3(C)[C@H](CC[C@@H]4[C@@]5(C)C[C@H](O)[C@H](O)[C@@](C)(CO)[C@@H]5CC[C@]43C)[C@@H]12`, the IC50 in assay [1] came out at 66.3 µM; in assay [2] it was 56.8 µM; in assay [3], 53.9 µM; in the assay on HeLa, 67.8 µM; with B16, 36.9 µM.

For `C=C(C)[C@@H]1CC[C@]2(C(=O)O)CC[C@]3(C)[C@H](CC[C@@H]4[C@@]5(C)C[C@H](OC(C)=O)[C@H](OC(C)=O)[C@@](C)(COC(C)=O)[C@@H]5CC[C@]43C)[C@@H]12`, the IC50 in assay [1] is 58.1 µM; in assay [2] it was 49.6 µM; in assay [3] it was 45.8 µM; in the assay on HeLa, 59.1 µM; with B16, 30.5 µM.

For `C=C(C)[C@@H]1CC[C@]2(C(=O)OCc3ccccc3)CC[C@]3(C)[C@H](CC[C@@H]4[C@@]5(C)C[C@H](OC(C)=O)[C@H](OC(C)=O)[C@@](C)(COC(C)=O)[C@@H]5CC[C@]43C)[C@@H]12`, the IC50 turned out to be 46.1 µM in assay [1]; 34.5 µM in assay [2]; 32.1 µM in assay [3]; 46 µM in the assay on HeLa; 21.6 µM in the assay on B16.

Turning to `C=C(C)[C@@H]1CC[C@]2(C(=O)OCc3ccccc3)CC[C@]3(C)[C@H](CC[C@@H]4[C@@]5(C)C[C@H](O)[C@H](O)[C@@](C)(CO)[C@@H]5CC[C@]43C)[C@@H]12`, the half-maximal inhibitory concentration (IC50) in assay [1] worked out at 49.9 µM; in assay [2], 39.6 µM; in assay [3] it was 33.5 µM; in the assay with HeLa it was 50.4 µM; in the assay on B16, 26.4 µM.

`C=C(C)[C@@H]1CC[C@]2(C(=O)O)CC[C@]3(C)[C@H](CC[C@@H]4[C@@]5(C)C=C(O)C(=O)[C@@](C)(CO)[C@@H]5CC[C@]43C)[C@@H]12`: the IC50 in assay [1] is 22 µM; in assay [2], 19.6 µM; in assay [3], 14.3 µM; with HeLa it was 20 µM; in the assay on B16, 11.3 µM.

In the case of `C=C(C)[C@@H]1CC[C@]2(C(=O)O)CC[C@]3(C)[C@H](CC[C@@H]4[C@@]5(C)C=C(OC(C)=O)C(=O)[C@@](C)(COC(C)=O)[C@@H]5CC[C@]43C)[C@@H]12`, the half-maximal inhibitory concentration (IC50) came to 29.8 µM in assay [1]; 25.4 µM in assay [2]; 18.9 µM in assay [3]; 24.1 µM in the assay with HeLa; 15 µM in the assay with B16.

`C=C(C)[C@@H]1CC[C@]2(C(=O)Oc3ccc(C#N)cc3)CC[C@]3(C)[C@H](CC[C@@H]4[C@@]5(C)CCC(=O)[C@@](C)(COC(C)=O)[C@@H]5CC[C@]43C)[C@@H]12`: the half-inhibitory concentration (IC50) in assay [1] worked out at 11.6 µM; in assay [2] it was 9.23 µM; in assay [3] it was 9.11 µM; in the assay on HeLa, 11.7 µM; in the assay with B16, 9.02 µM.

For the compound `C=C(C)[C@@H]1CC[C@]2(C(=O)OCCO)CC[C@]3(C)[C@H](CC[C@@H]4[C@@]5(C)CCC(=O)[C@@](C)(COC(C)=O)[C@@H]5CC[C@]43C)[C@@H]12`, the 50% inhibitory concentration (IC50) in assay [1] was determined as 31.1 µM; in assay [2], 27.4 µM; in assay [3], 22.1 µM; in the assay with HeLa, 24.4 µM; in the assay with B16, 18.1 µM.

Regarding `C=C(C)[C@@H]1CC[C@]2(C(=O)O)CC[C@]3(C)[C@H](CC[C@@H]4[C@@]5(C)CC/C(=N\O)[C@@](C)(CO)[C@@H]5CC[C@]43C)[C@@H]12`, the IC50 in assay [1] was 36.9 µM; in assay [2] it was 32.1 µM; in assay [3] it was 31.8 µM; in the assay with HeLa it was 40.8 µM; in the assay with B16, 23.8 µM.

Take `C=C(C)[C@@H]1CC[C@]2(C(=O)O)CC[C@]3(C)[C@H](CC[C@@H]4[C@@]5(C)CC/C(=N\NS(=O)(=O)c6ccc(C)cc6)[C@@](C)(CO)[C@@H]5CC[C@]43C)[C@@H]12`: the half-inhibitory concentration (IC50) in assay [1] is 46.3 µM; in assay [2], 39.4 µM; in assay [3], 25.2 µM; in the assay on HeLa, 44.3 µM; with B16, 33.3 µM.

As for `C=C(C)[C@@H]1CC[C@]2(C(=O)OCc3ccccc3)CC[C@]3(C)[C@H](CC[C@@H]4[C@@]5(C)CC/C(=N\NS(=O)(=O)c6ccc(C)cc6)[C@@](C)(CO)[C@@H]5CC[C@]43C)[C@@H]12`, the IC50 in assay [1] was 29.1 µM; in assay [2], 26.4 µM; in assay [3] it was 18.4 µM; in the assay on HeLa, 21.9 µM; in the assay on B16 it was 16.2 µM.

Consider `C=C(C)[C@@H]1CC[C@]2(C(=O)OCC(=O)OCC)CC[C@]3(C)[C@H](CC[C@@H]4[C@@]5(C)CC/C(=N\O)[C@@](C)(CO)[C@@H]5CC[C@]43C)[C@@H]12`, for which the IC50 in assay [1] worked out at 33.7 µM; in assay [2], 30.6 µM; in assay [3], 26.1 µM; in the assay on HeLa, 30 µM; with B16, 17.8 µM.

In the case of `C=C(C)[C@@H]1CC[C@]2(C(=O)OCC(=O)O)CC[C@]3(C)[C@H](CC[C@@H]4[C@@]5(C)CC/C(=N\O)[C@@](C)(CO)[C@@H]5CC[C@]43C)[C@@H]12`, the half-maximal inhibitory concentration (IC50) in assay [1] came out at 30.5 µM; in assay [2], 27.2 µM; in assay [3] it was 17.5 µM; with HeLa, 23.8 µM; with B16, 17.4 µM.

For `C=C(C)[C@@H]1CC[C@]2(C(=O)OCC)CC[C@]3(C)[C@H](CC[C@@H]4[C@@]5(C)CC/C(=N\O)[C@@](C)(CO)[C@@H]5CC[C@]43C)[C@@H]12`, the IC50 in assay [1] worked out at 31.6 µM; in assay [2], 30.8 µM; in assay [3] it was 28.6 µM; in the assay with HeLa, 31.7 µM; with B16, 17.6 µM.

As for `C=CCOC(=O)[C@]12CC[C@@H](C(=C)C)[C@@H]1[C@H]1CC[C@@H]3[C@@]4(C)CC/C(=N\O)[C@@](C)(CO)[C@@H]4CC[C@@]3(C)[C@]1(C)CC2`, the IC50 in assay [1] turned out to be 24.1 µM; in assay [2] it was 22.6 µM; in assay [3] it was 15.5 µM; in the assay with HeLa it was 25 µM; in the assay on B16, 13.1 µM.

For the compound `COc1cccc2c1C(=O)c1c(O)c3c(c(O)c1C2=O)C[C@@](O)(C(=O)CO)C[C@@H]3O[C@H]1C[C@H](N)[C@H](O)[C@H](C)O1` [DOXORUBICIN], the 50% inhibitory concentration (IC50) in assay [2] stood at 0.22 µM; in the assay with HeLa, 0.21 µM; in the assay with B16, 0.18 µM.
